We go through two compounds from patent US20240034753A1, “THERAPEUTIC PEPTIDES” (COHBAR, INC., priority 2020, published 2024).

One data set deals with A172 Cells. Nature of the data set: PrestoBlue cell viability assay. The note with it: human, 10 μM. It is filed as cell-based. In short, it runs like this: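 A172 human glioblastoma cells in DMEM/10% FBS, 8,000 per well, treated with peptide at 10 μM final (0.1% DMSO). Viability read by PrestoBlue at 560 and 590 nm, expressed relative to 0.1% DMSO control.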
The test system of another data set is 3T3-L1 Mouse Adipocytes. Nature of the data set: Free fatty acid levels in cultured mouse adipocytes stimulated with isoproterenol. It is filed as cell-based. Conditions: peptide 10 μM, 20-22 hours then 3 hours with 1 nM isoproterenol; relative to isoproterenol treated cells. In outline:
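Differentiated 3T3-L1 adipocytes (12–15 days) given peptides at 10 μM final (0.1% DMSO) for 20–22 h, then stimulated with 1 nM isoproterenol for 3 h at 37 °C with peptide replenished. Media free fatty acids read colorimetrically at 540 nm, background-corrected and expressed relative to isoproterenol-only cells.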

Data set [1] has as its system SH-SY5Y Neuroblastoma Cells. Nature of the data set: ATP levels (CellTiter-Glo). The note with it: peptide 10 μM, 18-20 hours, relative to 0.1% DMSO treated control. The data set is classed as cell-based, human. In short, it runs like this: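 SH-SY5Y cells in DMEM/F12 with 10% FBS were seeded at 30,000 cells/well and treated with peptides at a final 10 μM (0.1% DMSO). Cellular ATP was measured by CellTiter-Glo luminescence. Activity was expressed relative to the 0.1% DMSO-treated control.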
On the technique in general: ATP-based viability assays read luminescence as a measure of living cells.

The test system of data set [2] is SH-SY5Y Neuroblastoma Cells Exposed to Staurosporine. As to the kind of experiment: ATP levels in cells exposed to staurosporine (CellTiter-Glo). It is filed as cell-based, human. Conditions: peptide 10 μM plus staurosporine (40 μM), 18-20 hours; <100% cytoprotective, >100% synergistic. As to the method:
Peptides were initially prepared as 10 mM stock in DMSO and tested at a final concentration of 10 μM (0.1% DMSO). […] […] CellTiter-Glo® Assay kit was purchased from Promega. SH-SY5Y human neuroblastoma cell line was purchased from American Type Culture Collection (Manassas, VA) and licensed from Memorial Sloan-Kettering Cancer Center (New York, NY). SH-SY5Y cells were grown in DMEM/F12 medium supplemented with 10% FBS with 100 IU/ml penicillin and 100 μg/ml streptomycin. Cultures were maintained at 37° C. in a humidified atmosphere of 5% CO2/95% air. SH-SY5Y cells were seeded at 30,000 cells per well on 96-well plates. […] ATP levels were determined using a CellTiter-Glo Assay kit (Promega) according to the manufacturer's instructions. Luminescence for each sample well on the plate was measured using a Cytation 3 plate reader (BioTek, Winooski, VT). […] A value less than 100% is indicative of a cytoprotective effect, while a value greater than 100% is indicative of a synergistic effect on viability.

Each structure is given as a SMILES string. Square brackets hold non-standard residues; d marks the D form. Peptide text beside a SMILES is read from it.

Turning to `CC[C@H](C)[C@H](NC(=O)[C@H](CC(C)C)NC(=O)[C@H](C)NC(=O)[C@@H](N)CCSC)C(=O)N[C@@H](CC(C)C)C(=O)N[C@H](C(=O)N[C@@H](CC(C)C)C(=O)N[C@H](C(=O)N[C@@H](CC(C)C)C(=O)N[C@H](C)C(=O)O)C(C)C)[C@@H](C)O` [compound 4] (H-MALILTLVL[dA]-OH; N-terminus and C-terminus assumed), the “PrestoBlue cell viability, Percent of Control Activity” value with A172 Cells came to 99.7%. Besides, the “Free Fatty Acid Levels, MEAN %ISO” value in the data set with 3T3-L1 Mouse Adipocytes stood at 71.3%. For the same compound, in data set [1], the “ATP Levels, % Control” value was 102.2%. Further, the “Percent of ATP Reduction Induced by Control” value in data set [2] was 94.0%.
As to `CSCC[C@H](NC(=O)[C@H](CCCNC(=N)N)NC(=O)[C@H](CCCNC(=N)N)NC(=O)[C@@H](N)CCCNC(=N)N)C(=O)N[C@@H](Cc1ccccc1)C(=O)N[C@@H](CO)C(=O)N[C@@H](CS)C(=O)N[C@@H](Cc1ccc(O)cc1)C(=O)N[C@H](C)C(=O)N[C@@H](Cc1ccc(O)cc1)C(=O)O` [compound 19] (H-RRRMFSCY[dA]Y-OH; N-terminus and C-terminus assumed), the “PrestoBlue cell viability, Percent of Control Activity” value with A172 Cells is given as 98.8%. For the same compound, in the data set on 3T3-L1 Mouse Adipocytes, the “Free Fatty Acid Levels, MEAN %ISO” value amounted to 64.0%. Besides, the “ATP Levels, % Control” value in data set [1] stood at 106.7%. Further, in data set [2], the “Percent of ATP Reduction Induced by Control” value stood at 99.5%.
